Laboratory results published in patent US6087358A (priority 1997, dated 2000).
Converted amounts (≈) assume the structure as drawn. Like-named read-outs stand apart in the source and are kept apart here.

Assays:
[1] = system: Mycobacterium bovis BCG (recombinant strain); test: microbe, parasite or virus in culture; format: cell-based; details: 6 days 37° C.; for MIC: Mycobacterium tuberculosis variant bovis BCG, BCG, 144 h, read-out: MIC, column A, 3(S) compounds
[2] = system: Mycobacterium tuberculosis (rMTB); test: In vivo antimycobacterial activity against M. tuberculosis (rMTB) in spleens of mice; set-up: species or system Mycobacterium tuberculosis Erdman, in female BALB/c mice; details: 25 mg/kg daily oral gavage, CM-2, 10 days, control 422,866 (PA-824, 636, 1297) or 362,274 (others)
[3] = system: Mycobacterium tuberculosis (rMTB); test: In vivo antimycobacterial activity against M. tuberculosis (rMTB) in lungs of mice; set-up: species or system Mycobacterium tuberculosis Erdman, in female BALB/c mice; details: 25 mg/kg daily oral gavage, CM-2, 10 days, control 117,258 (PA-824, 636, 1297) or 22,751 (others)
[4] = system: Helicobacter pylori Strain 4187E; test: In vivo activity against Helicobacter pylori strain 4187E in mice; set-up: species or system in outbred female white mice; details: oral gavage, four days
Excerpt: Outbred female white mice (20 grams) were infected by oral gavage with 10^7 -10^8 colony forming units of H. pylori strain 4187E (originally isolated from a patient with a duodenal ulcer). […] Treatment continued for four days. Clarithromycin, administered at the same concentration and for the same duration, was included as a positive control. One group of animals also received an equal volume of formulation vehicle alone, to provide a negative control.
Five days after cessation of treatment, all animals were sacrificed, the stomachs were removed, opened, and the contents washed out. The entire mucosal surface was then spread evenly over the surface of an agar plate containing antibiotics appropriate for the prevention of growth of microorganisms other than Helicobacter spp. After seven days incubation under microaeropilic conditions at 37° C., culture plates were evaluated for bacterial growth.

[5] = system: Helicobacter pylori; test: In vitro inhibition of Helicobacter pylori (broth microdilution MIC); details: for MIC: Helicobacter pylori
[6] = system: Mycobacterium tuberculosis H37Rv (sensitive strain); test: MIC as determined by the BACTEC method, sensitive strain; format: cell-based; details: M. tuberculosis H37Rv (sensitive strain), read-out: MIC, column B, 3(S) compounds
[7] = system: Clostridium difficile ATCC 17857; test: In vitro inhibition of Clostridium difficile (Oxyrase broth microdilution MIC); format: cell-based; details: Clostridioides difficile, ATCC17857; Clostridium difficile ATCC 17857, Oxyrase broth; read-out: MIC, column D, 3(S) compounds
[8] = system: Cryptosporidium parvum; test: Inhibition of Cryptosporidium parvum (ELISA, infected HCT-8 monolayers); format: cell-based; details: Cryptosporidium parvum, HCT-8, 48 h, read-out: Percent Inhibition of C. parvum
Method: Susceptibility testing against Cryptosporidium was performed according to published procedures (K. Woods, M. Nesterenko, S. Upton, "Development of a microtiter ELISA to quantify development of Cryptosporidium parvum in vitro," FEMS Microbiology Letters, 128:89-94 (1995).
Compounds were solubilized to a concentration of 100 mg/mL in 100% DMSO. DMSO solutions of test compounds were added to the test wells of a microplate at a volume that produced a final concentration of DMSO of 0.2%. Monolayers of human ileocecal adenocarcinoma cells (HCT-8) were prepared by growth in RPMI 1640 medium in 96-Well tissue culture trays for 24 h. Oocysts of C. parvum were allowed to excyst in 10% bleach for 10 min prior to use. Monolayers were then infected with 2-3×10^4 oocysts/well and incubated in the presence or absence of compound for 48 h at 35° C. in 5% CO2 and 95% humidity. Background consisted of wells containing killed oocysts (freeze thaw cycle following 30 sec exposure to liquid nitrogen). Growth control wells were infected with 2-3×10^4 oocysts/well in the absence of test compounds. At the end of incubation, wells were washed and fixed by adding 100 uL of 4% formalin in phosphate buffered saline (pH 7.3) per well for 2 h. After blocking with 1% bovine serum albumin, and 0.002% Tween 20, 50 uL of rat anti-Cryptosporidium membrane protein antiserum was added. After 30 min, wells were washed in PBS and 50 uL of secondary antibody (goat anti-rat antibody conjugated with horseradish peroxidase) was added. After 20-30 min, wells were washed again in PBS and 50 uL of 3,3',5,5'-tetramethylbenzidine solution was added. Plates were allowed to develop for 10-15 min and the optical density was read at 630 nm. Percent inhibition was calculated by comparing the optical density of the drug treated group to that of the untreated control.

[9] = system: Helicobacter felis; test: In vivo activity against Helicobacter felis in mice (urease test of stomach biopsy); set-up: species or system in female CD-1 mice; details: 50 mg/kg three times daily oral gavage, CM-2, four days; vehicle and untreated 100
Method: Female CD-1 mice weighing 30 grams were infected by oral gavage with 10^8 -10^9 colony forming units of H. felis. This infection process was repeated two, and four days, thereafter. Colonization of the stomach was allowed to occur over a seven day period. Animals were segregated into groups of five, and were treated three times daily by oral gavage with 50 mg/kg of test drugs prepared in the CM-2 formulation vehicle (Example 52). Treatment continued for four days. One group of animals received an equal volume of formulation vehicle alone, to ensure that the vehicle had no effect on the Helicobacter infection. A separate untreated control group was also included.
All animals were then sacrificed, the stomachs were removed, opened, and the contents washed out. A five millimeter diameter biopsy was removed, and transferred to a urease test solution containing a pH-sensitive dye, which was then incubated at 37° C. incubator for 24 hours. A blue or purple coloration in this test solution signifies a positive reaction, indicating the continued presence of viable Helicobacter bacteria; a negative result is indicated by a yellow coloration. Viable Helicobacter bacteria produce a urease enzyme which converts urea, of which there is an abundant supply in the stomach (from saliva and gastric juices), into bicarbonate and ammonia, which are strong bases. This mechanism is considered to provide conditions more amenable to the survival of Helicobacter in the otherwise acidic conditions prevalent in the stomach.

[10] = 72 h, read-out: MIC against Helicobacter pylori, strain 17 (Table 5A)
[11] = 72 h, read-out: MIC against Helicobacter pylori, strain 19 (Table 5A)
[12] = 72 h, read-out: MIC against Helicobacter pylori, strain 20 (Table 5A)
[13] = 72 h, read-out: MIC against Helicobacter pylori, strain 40 (Table 5A)
[14] = 72 h, read-out: MIC against Helicobacter pylori, strain 43 (Table 5A)
[15] = 72 h, read-out: MIC against Helicobacter pylori, strain 76 (Table 5A)
[16] = ATCC43504, 72 h, read-out: MIC against Helicobacter pylori, strain ATCC 43504 (Table 5A)

Compound | Average RLUs, M. tuberculosis (rMTB) in spleens [2] | Average RLUs, M. tuberculosis (rMTB) in lungs [3] | % Eradication ([4]; twice daily 5 mg/kg) [%] | % Eradication ([4]; twice daily 50 mg/kg) [%] | MIC [5, 10] [µg/mL] | MIC [5, 11] [µg/mL] | MIC [5, 12] [µg/mL] | MIC [5, 13] [µg/mL] | MIC [5, 14] [µg/mL] | MIC [5, 15] [µg/mL] | MIC [5, 16] [µg/mL] | MIC [1] [µg/mL] | MIC [7] [µg/mL] | further results
4-Bromobenzyl Carbamate of 3S 3-Hydroxy-6-nitro-3,4-dihydro-[2-1b]imidazopyran [PA-1324] | 85,130 RLUs | 1,612 RLUs | – | – | – | – | – | – | – | – | – | – | – | MIC, column A, 3(S) compounds [1]: 0.015
CC[C@H]1OC(=O)[C@H](C)[C@@H](O[C@H]2C[C@@](C)(OC)[C@@H](O)[C@H](C)O2)[C@H](C)[C@@H](O[C@@H]2O[C@H](C)C[C@H](N(C)C)[C@H]2O)[C@](C)(OC)C[C@@H](C)C(=O)[C@H](C)[C@@H](O)[C@]1(C)O [Clarithromycin, reference compound] | – | – | 0 | 100 | 0.016 (≈ 0.0214 µM) | 8 (≈ 10.7 µM) | 8 (≈ 10.7 µM) | 0.016 (≈ 0.0214 µM) | 0.008 (≈ 0.0107 µM) | 0.032 (≈ 0.0428 µM) | 0.06 (≈ 0.0802 µM) | – | – | MICs of control drugs relative to expected values ([5]; H. pylori ATCC 43): within the expected values; MIC ([5]; 72 h, read-out: MIC against Helicobacter pylori, strain B40, Met-S, Clar-S (Table 5B)): < 0.015 µg/mL; MIC ([5]; 72 h, read-out: MIC against Helicobacter pylori, strain B76, Met-R, Clar-S (Table 5B)): < 0.015 µg/mL; MIC ([5]; 72 h, read-out: MIC against Helicobacter pylori, strain C1649, Met-R, Clar-R (Table 5B)): > 4 µg/mL; MIC ([5]; 72 h, read-out: MIC against Helicobacter pylori, strain C11403, Met-S, Clar-R (Table 5B)): 4 µg/mL (≈ 5.35 µM); MIC ([5]; 72 h, read-out: MIC against Helicobacter pylori, strain C19765 (Table 5B)): < 0.015 µg/mL; MIC ([5]; 72 h, read-out: MIC against Helicobacter pylori, strain RD26, Met-S, Clar-S (Table 5B)): 0.03 µg/mL (≈ 0.0401 µM); MIC ([5]; 72 h, read-out: MIC against Helicobacter pylori, strain rd26, Met-S, Clar-S (Table 5B)): 0.03 µg/mL (≈ 0.0401 µM); MIC ([5]; ATCC43504, 72 h, read-out: MIC against Helicobacter pylori, strain ATCC 43504, Met-R, Clar-S (Table 5B)): 0.03 µg/mL (≈ 0.0401 µM); MIC ([5]; ATCC43526, 72 h, read-out: MIC against Helicobacter pylori, strain ATCC 43526, Met-R, Clar-S (Table 5B)): < 0.015 µg/mL; MIC ([5]; ATCC43579, 72 h, read-out: MIC against Helicobacter pylori, strain ATCC 43579, Met-S, Clar-S (Table 5B)): < 0.015 µg/mL; MIC ([5]; ATCC43629, 72 h, read-out: MIC against Helicobacter pylori, strain ATCC 43629, Met-S, Clar-S (Table 5B)): 0.03 µg/mL (≈ 0.0401 µM)
CC(C)=CCC/C(C)=C/CO[C@@H]1COc2nc([N+](=O)[O-])cn2C1 [PA-626] | – | – | – | – | – | – | – | – | – | – | – | 0.5 (≈ 1.56 µM) | 0.8 (≈ 2.49 µM) | MIC [6]: 0.13 µg/mL (≈ 0.405 µM)
O=[N+]([O-])c1cn2c(n1)OC[C@@H](OCc1ccc(C(F)(F)F)cc1)C2 [PA-636, 3S 4-(Trifluromethyl)benzyloxy-6-nitro-2H-3,4-dihydo-[2-1b]imidazopyran] | 91,377 RLUs | 5,790 RLUs | – | – | – | – | – | – | – | – | – | 0.5 (≈ 1.46 µM) | 3.12 (≈ 9.09 µM) | inhibition at 25 µg/mL ([8]; 25 μg/mL): 14.5%; inhibition at 50 µg/mL ([8]; 50 μg/mL): 9.4%; inhibition at 100 µg/mL ([8]; 100 μg/mL): 21%; inhibition at 200 µg/mL ([8]; 200 μg/mL): 39%
CCCCc1ccc(CO[C@@H]2COc3nc([N+](=O)[O-])cn3C2)cc1 [PA-822] | – | – | 0 | 0 | 25 (≈ 75.4 µM) | 0.2 (≈ 0.604 µM) | 0.2 (≈ 0.604 µM) | 0.2 (≈ 0.604 µM) | 0.4 (≈ 1.21 µM) | 6.25 (≈ 18.9 µM) | > 25 | 0.06 (≈ 0.181 µM) | 12.5 (≈ 37.7 µM) | % Eradication ([4]; once daily 25 mg/kg): 0%; % Survival [9]: 100%
